Results taken from patent US7867976B2, “Nogo epitopic fragments for modulating immune response” (The Board of Trustees of the Leland Stanford Junior …, priority 2003, dated 2011).

Assays:
Bi MOG35-55 BIOTIN = assay: myelin antigen microarray, serum antibody binding to spotted feature 'Bi MOG35-55 BIOTIN'
whole lymph node cells = assay: whole lymph node cell proliferation assay against Nogo and irrelevant peptides after Nogo-66 peptide immunization; assay type: cell-based, mice; conditions: draining lymph nodes at end of experiments
Excerpt: Induction of EAE and T cell responses with Nogo-66 peptides in susceptible mouse strains. To ascertain the potential for Nogo-A to act as a target autoantigen for autoimmune demyelination, we chose to focus on the exposed extracellular 66-amino acid loop, Nogo-66, since this should be the region most prone to interaction with immune cells. EAE susceptible SJL/J and C57BU6 female mice of the appropriate age were subcutaneously immunized with Nogo-66 derived peptides in CFA, in various concentration ranging from 200 μg to 1000 μg, together with intravenous administration of Pertussis toxin.
Three different arbitrarily selected peptides were synthesized to encompass the whole sequence (peptides 1-22, 23-44 and 45-66). […] To evaluate the generation of a T cell proliferative response against the immunizing antigen, we collected draining lymph nodes at the end of the experiments and setup whole lymph node cell proliferation assays against our panel of Nogo and irrelevant peptides. […] Therefore, T cell epitopes appear to be slightly different between these two strains.
(§1) Immunization. For Nogo immunizations, SJL/J and C57BU6 female mice were injected subcutaneously with Nogo-peptide emulsions (concentrations ranging from 100 μg to 500 μg per injection) in CFA, consisting of IFA (Difco) and 1 mg/ml heat-inactivated Mycobacterium tuberculosis (strain H37RA; Difco laboratories, Detroit Mich.). Animals received two subcutaneous injections a week apart in different sites (flank and groin); at the time of the second immunization and 48 hours later, mice were injected intravenously with Bordetella pertussis toxin (List Laboratories) in PBS, 500 ng/animal; For Nogo-A/B/C knockouts, animals were immunized subcutaneously with 100 μg of MOG35-55 peptide emulsion in CFA and received two intravenous injections of 300 ng of Bordetella pertussis toxin, at the time of immunization and 48 hours later. Chronic EAE was induced in SJL/J mice by subcutaneous injection of 100 mg of PLP139-151 peptide emulsion in CFA. Animals were clinically scored daily according to the following scale: 0-normal; 1-tail paralysis; 2-hind limb paraparesis; 3-complete hind limb paralysis; 4-forelimb paresis or paralysis; 5-death.
Proliferation assays. Whole lymph node cells were cultured in 96-well microtiter plates at 0.5×10^6 cells/well. Culture medium consisted of RPMI 1640 supplemented with L-glutamine (2 mM), sodium pyruvate (1 mM), non-essential amino acids (0.1 mM), penicillin (100 U/ml), streptomycin (0.1 mg/ml), 2-ME (5×10^−5 M) and 10% fetal bovine serum. Wells were pulsed with 1 μCi [^3H]TdR for the final 16 hours of culture, and incorporated radioactivity was measured using a betaplate scintillation counter.

[1] = system: myelin antigens (2304-feature spotted peptide array, 293 distinct antigens); assay: antibody (B cell) response of sera from immunized animals on spotted peptide array; assay type: in vivo, mice; conditions: for epitope spreading of the B cell response to other myelin antigens: sera on proteome array, statistical and cluster analysis
Excerpt: Nogo-66 peptide immunization induces a B cell response with epitope spreading to other myelin antigens. To follow the induction of a specific antibody response to the immunizing Nogo peptides, and the possible spread to other myelin antigens, we used an 2304-feature spotted peptide array developed in our laboratory that contains 293 distinct antigens including proteins and sets of overlapping peptides representing all major EAE-relevant targets and several Nogo-66 overlapping peptides together with p472 (Robinson, 2001). Sera from several immunized animals was obtained at different time points after EAE induction with all three Nogo peptides, and hybridized to the proteome array according to our protocol.
This was particularly relevant after immunization with pNogo45-66 in both strains, and with pNogo23-44 for C57BU6 mice. Spreading of the B cell response evidenced a specific pattern for each immunizing antigen within each strain, with very little overlap between them.
as §1, with “Chronic EAE was induced in SJL/J mice by subcutaneous injection of 100 mg of PLP139-151 peptide emulsion in CFA.” left out

[2] = system: whole lymph node cells (T cells, dendritic cells); assay: FACScan analysis of activation markers and co-stimulatory molecules after immunization; assay type: cell-based, mice; conditions: female SJL/J, 10 days post-immunization; compared with PLP139-151
Excerpt: We purified whole lymph node cells from female SJL/J animals 10 days post-immunization with PLP139-151, pNogo1-22 and pNogo45-66 and looked at the expression of several activation markers and co-stimulatory molecules by fluorescence activated cell scan (FACScan) analysis. […] Nogo-peptides are capable of normal presentation by APC and immunization leads to normal activation of T cells.

EAE in SJL/J mice = assay: adoptive transfer of Nogo-reactive T cells into SJL/J mice with PLP139-151 induced EAE; assay type: in vivo; conditions: cells of EAE animals that received TCL; compared with PLP139-151
Procedure: We induced EAE in SJL/J mice by immunization with 100 μg of PLP139-151 peptide in CFA and followed these animals for disease course. At the peak of second relapse (day 31), animals were randomized into three groups and received either weekly PBS, anti-pNogo1-22 or anti-pNogo45-66 reactive T cells in PBS (average of 15 million cells), by intravenous administration for three weeks. […] For these animals, this improvement was maintained throughout the next 45 days of the experiment, up to 30 days after the last TCL administration.
Immunization. For Nogo immunizations, SJL/J and C57BU6 female mice were injected subcutaneously with Nogo-peptide emulsions (concentrations ranging from 100 μg to 500 μg per injection) in CFA, consisting of IFA (Difco) and 1 mg/ml heat-inactivated Mycobacterium tuberculosis (strain H37RA; Difco laboratories, Detroit Mich.). […] Animals were clinically scored daily according to the following scale: 0-normal; 1-tail paralysis; 2-hind limb paraparesis; 3-complete hind limb paralysis; 4-forelimb paresis or paralysis; 5-death.
Proliferation assays. […] Wells were pulsed with 1 μCi [^3H]TdR for the final 16 hours of culture, and incorporated radioactivity was measured using a betaplate scintillation counter.

Normal Mouse Serum = assay: myelin antigen microarray; positive-control feature 'Anti-mouse IgG/M' capturing immunoglobulin of the serum in column 'a. Normal'

For Normal Mouse Serum, the microarray signal (quantity and unit not named on the sheet) (Bi MOG35-55 BIOTIN) was 5.

With “Nogo45-66 (VNSTIKELRRLFLVDDLVDSLK; SEQ ID NO:2) [pNogo45-66, peptide 45-66 of the extracellular 66-amino acid loop Nogo-66]” the “T cell proliferative response against the immunizing antigen” value (shortened to “T cell proliferative response”) (whole lymph node cells; SJL/J animals) was “strong and specific proliferative response”, the “T cell proliferative response” value (whole lymph node cells; SJL/J animals, listed as Ng45-66) was “T cell reaction” and the “strength as B cell antigen compared with the other peptides” value ([1]; mouse, in vivo) was “much stronger B cell antigen than any of the other two synthesized peptides”. The “cell surface expression of CD25, CD18, CD40L, CD62, CD69, CD28 and CTLA4e in T cells or CD80, CD86, CD40 in dendritic cells” value [2] was “could not find any difference” and the “in vitro proliferation at the end of the experiment” value (EAE in SJL/J mice) was “much stronger than against the EAE inducing antigen”.

In the case of “Nogo 1-22 (RIYKGVIQAIQKSDEGHPFRAY; SEQ ID NO:4) [pNogo1-22, peptide 1-22 of the extracellular 66-amino acid loop Nogo-66]”, the “T cell proliferative response” value (whole lymph node cells; C57BU6 animals, listed as Ng1-22) is reported as “T cell reaction”, the “T cell proliferative response” value (whole lymph node cells; SJL/J animals) is reported as “strong and specific proliferative response” and the “T cell proliferative response” value (whole lymph node cells; SJL/J animals, listed as Ng1-22) is reported as “T cell reaction”. For the same substance, the “epitope spreading of the B cell response to other myelin antigens” value [1] was “mainly to MBP peptides” and the “cell surface expression of CD25, CD18, CD40L, CD62, CD69, CD28 and CTLA4e in T cells or CD80, CD86, CD40 in dendritic cells” value [2] was “could not find any difference”.

Anti-mouse IgG/M (antibody) showed a microarray signal (quantity and unit not named on the sheet) (Normal Mouse Serum) of 50000.

For “Nogo23-44 (LESEVAISEELVQKYSNSALGH; SEQ ID NO:5) [pNogo23-44, peptide 23-44 of the extracellular 66-amino acid loop Nogo-66]”, the “T cell proliferative response” value (whole lymph node cells; C57BU6 animals, listed as Ng23-44) was “T cell reaction” and the “epitope spreading of the B cell response to other myelin antigens” value [1] was “to MOG and MBP peptides (especially in C57BU6 animals)”.
